Each compound was assayed on HCV sub-genomic replicon, GS4.3 (assay: Quantitation by ELISA of NPTII in the HCV sub-genomic replicon, GS4.3, Section B). Details: Hepatitis C virus; GS4.3 cells, 72 h incubation; read-out: Replicon EC50.
Type: cell-based
Summary of the method: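 GS4.3 cells (HuH-7 carrying HCV 1377/NS3-3′ replicon) were treated 72 h at 37 °C with inhibitors in 3-fold dilutions, 1% DMSO, no G418. Lysate NPTII was measured by ELISA (TMB, 450 nm). Signal as % of DMSO control; EC50 from 4-parameter fit.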

Row | SMILES | EC50 [nM]
1 | O=C(N[C@H]1CCCCC/C=C\[C@@H]2C[C@@]2(C(=O)NS(=O)(=O)C2CC2)NC(=O)[C@@H]2C[C@@H](OC(=O)N3CCc4ccccc4C3)CN2C1=O)OCC(F)(F)F [AR00320578, (1S,4R,6S,14S,18R)-3,4-Dihydro-1H-isoquinoline-2-carboxylic acid 4-cyclopropanesulfonylaminocarbonyl-2,15-dioxo-14-(2,2,2-trifluoro-ethoxycarbonylamino)-3,16-diaza-tricyclo[14.3.0.0^4,6]nonadec-7-en-18-yl ester] | < 100
2 | CC(C)(C)OC(=O)N[C@H]1CCCCC/C=C\[C@@H]2C[C@@]2(C(=O)NS(=O)(=O)C2CC2)NC(=O)[C@@H]2C[C@@H](OC(=O)N3Cc4ccc(OCCn5ccnc5)cc4C3)CN2C1=O [AR00345096, (1S,4R,6S,14S,18R)-5-(2-Imidazol-1-yl-ethoxy)-1,3-dihydro-isoindole-2-carboxylic acid 14-tert-butoxycarbonylamino-4-cyclopropanesulfonylaminocarbonyl-2,15-dioxo-3,16-diaza-tricyclo[14.3.0.0^4,6]nonadec-7-en-18-yl ester] | < 100
3 | O=C(N[C@H]1CCCCC/C=C\[C@@H]2C[C@@]2(C(=O)NS(=O)(=O)C2CC2)NC(=O)[C@@H]2C[C@@H](OC(=O)N3Cc4ccc(Cl)cc4C3)CN2C1=O)OCCF [AR00334222, (1S,4R,6S,14S,18R)-5-Chloro-1,3-dihydro-isoindole-2-carboxylic acid 4-cyclopropanesulfonylaminocarbonyl-14-(2-fluoro-ethoxycarbonylamino)-2,15-dioxo-3,16-diaza-tricyclo[14.3.0.0^4,6]nonadec-7-en-18-yl ester] | < 100
4 | CC(C)(C)OC(=O)N[C@H]1CCCCC/C=C\[C@@H]2C[C@@]2(C(=O)O)NC(=O)[C@@H]2C[C@@H](OC(=O)N3CCc4ccccc4C3)CN2C1=O [AR00220042, (1S,4R,6S,14S,18R)-14-tert-Butoxycarbonylamino-18-(3,4-dihydro-1H-isoquinoline-2-carbonyloxy)-2,15-dioxo-3,16-diaza-tricyclo[14.3.0.0^4,6]nonadec-7-ene-4-carboxylic acid] | < 10000

These compounds were tested against T1, NS3-NS4 protease (Hepatitis C virus genotype 1a, UniProt P27958) (assay: NS3-NS4 protease assay / NS3 inhibition assay, Section D). Details: not given.
T1 construct: Recombinant E. coli or Baculovirus full-length NS3 was diluted to 3.33 μM with assay buffer; made in house; host or cells: E. coli or baculovirus (BV) system
T1 sequence (P27958 1027-1657): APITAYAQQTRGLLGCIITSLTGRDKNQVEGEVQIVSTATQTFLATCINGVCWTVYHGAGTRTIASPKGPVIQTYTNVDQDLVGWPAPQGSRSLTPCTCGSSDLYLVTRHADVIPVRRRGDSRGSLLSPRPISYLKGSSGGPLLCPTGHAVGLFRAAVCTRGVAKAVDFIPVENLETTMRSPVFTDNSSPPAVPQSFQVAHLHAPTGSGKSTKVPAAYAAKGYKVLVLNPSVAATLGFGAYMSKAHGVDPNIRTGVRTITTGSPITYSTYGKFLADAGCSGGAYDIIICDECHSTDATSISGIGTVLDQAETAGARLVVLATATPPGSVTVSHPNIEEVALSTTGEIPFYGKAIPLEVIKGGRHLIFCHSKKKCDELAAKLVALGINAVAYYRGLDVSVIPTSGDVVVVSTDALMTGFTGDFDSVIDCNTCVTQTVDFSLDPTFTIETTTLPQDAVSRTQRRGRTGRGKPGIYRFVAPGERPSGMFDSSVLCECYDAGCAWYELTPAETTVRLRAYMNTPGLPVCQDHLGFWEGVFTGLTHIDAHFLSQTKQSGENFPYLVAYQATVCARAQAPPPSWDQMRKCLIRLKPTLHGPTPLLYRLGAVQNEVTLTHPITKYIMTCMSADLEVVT
Type: biochemical
Procedure: NS3-NS4 Protease Assay NS3 complex formation with NS4A-2.
Recombinant E. coli or Baculovirus full-length NS3 was diluted to 3.33 μM with assay buffer and transferred material to an eppendorf tube and place in water bath in 4° C. refrigerator. The appropriate amount of NS4A-2 to 8.3 mM in assay buffer was added to equal the volume of NS3 in step 2.1.1 (conversion factor −3.8 mg/272 μL assay buffer). The material was transferred to an eppendorf tube and place in water bath in 4° C. refrigerator.
After equilibration to 4° C., equal volumes of NS3 and NS4A-2 solutions were combined in an eppendorf tube, mix gently with a manual pipettor, and incubate mixture for 15 minutes in the 4° C. water bath. Final concentrations in the mixture are 1.67 μM NS3, 4.15 mM NS4A-2 (2485-fold molar excess NS4A-2).
After 15 minutes at 4° C., the NS3/NS4A-2 eppendorf tube was removed and placed in a room temperature water bath for 10 minutes. NS3/NS4A-2 was alliquoted at appropriate volumes and store at −80° C. (E. coli NS3 run at 2 nM in assay, aliquot at 25 μL. BV NS3 run at 3 nM in assay, aliquot at 30 μL).
Sample compounds were dissolved to 10 mM in DMSO then diluted to 2.5 mM (1:4) in DMSO.
The E. coli. NS3/NS4A-2 was diluted to 4 nM NS3 (1:417.5 of 1.67 μM stock−18 μL 1.67 μM stock+7497 μL assay buffer).
The BV NS3/NS4A-2 was diluted to 6 nM NS3 (1:278.3 of 1.67 μM stock−24 μL 1.67 μM stock+6655 μL assay buffer).
Using the manual multichannel pipettor, careful not to introduce bubbles into the plate, add 50 μL assay buffer to wells A01-H01 of a black Costar 96-well polypropylene storage plate.
Using the manual multichannel pipettor, careful not to introduce bubbles into the plate, add 50 μL of diluted NS3/NS4A-2 from step 2.2.6 to wells A02-H12 of plate in step 2.2.7.
Using the manual multichannel pipettor, careful not to introduce bubbles into the plate, transfer 25 μL of the wells in drug dilution plate in step 2.2.5 to corresponding wells in assay plate in step 2.2.8. Change tips on multichannel pipettor for each row of compounds transferred.
Using the manual multichannel pipettor, careful not to introduce bubbles into the plate, mix the wells from the assay plate in step 2.2.9 by aspirating and dispensing 35 μL of the 75 μL in each well five times. Change tips on multichannel pipettor for each row of wells mixed.
Cover plate with a polystyrene plate lid and pre-incubate the plate from step 2.2.10 containing NS3 protease and sample compounds 10 minutes at room temperature.
While plate from step 2.2.11 is pre-incubating, dilute RETS1 substrate in a 15 mL polypropylene centrifuge tube.
Dilute RETS1 substrate to 8 μM (1:80.75 of 646 μM stock−65 μL 646 μM stock+5184 μL assay buffer).
After the plate in step is done pre-incubating, and using the manual multichannel, add 25 μL of substrate to all wells on the plate. Quickly mix the plate as in step 2.2.10, mixing 65 μL of the 100 μL in the wells.
Read the plate in kinetic mode on the Molecular Devices SpectraMax Gemini XS plate reader. Reader settings: Read time: 30 minutes, Interval: 36 seconds, Reads: 51, Excitation k: 335 nm, Emission k: 495 nm, cutoff: 475 nm, Automix: off, Calibrate: once, PMT: high, Reads/well: 6, Vmax pts: 21 or 28/51 depending on length of linearity of reaction.
IC50s are determined using a four parameter curve fit equation, and converted to Ki's using the following Km's:
where Ki=IC50/(1+[S]/Km))

Row | SMILES | IC50 [nM]
5 | CC(C)(C)NC(=O)N[C@H]1CCCCC/C=C\[C@@H]2C[C@@]2(C(=O)NS(=O)(=O)C2CC2)NC(=O)[C@@H]2C[C@@H](NC(=O)c3sc4ccccc4c3Cl)CN2C1=O [Example 49] | < 100
6 | CC(C)(C)OC(=O)N[C@H]1CCCCC/C=C\[C@@H]2C[C@@]2(C(=O)NS(=O)(=O)C2CC2)NC(=O)[C@@H]2C[C@@H](NC(=O)c3cc4ccccc4s3)CN2C1=O [Example 43] | < 100
7 | COc1cc2cc(C(=O)N[C@@H]3C[C@H]4C(=O)N[C@]5(C(=O)NS(=O)(=O)C6CC6)C[C@H]5/C=C\CCCCC[C@H](NC(=O)OC(C)(C)C)C(=O)N4C3)[nH]c2cc1OC [Example 37] | < 100
8 | COc1ccc(C(=O)N[C@@H]2C[C@H]3C(=O)N[C@]4(C(=O)O)C[C@H]4/C=C\CCCCC[C@H](NC(=O)OC(C)(C)C)C(=O)N3C2)cc1C(F)(F)F [Example 69] | < 10000
9 | CC(C)(C)NC(=O)N[C@H]1CCCCC/C=C\[C@@H]2C[C@@]2(C(=O)NS(=O)(=O)C2CC2)NC(=O)[C@@H]2C[C@@H](NC(=O)c3cc4ccccc4s3)CN2C1=O [Example 54] | < 100
10 | CC(C)(C)OC(=O)N[C@H]1CCCCC/C=C\[C@@H]2C[C@@]2(C(=O)NS(=O)(=O)C2CC2)NC(=O)[C@@H]2C[C@@H](NC(=O)c3ccc(S(N)(=O)=O)cc3)CN2C1=O [Example 17] | < 100
11 | O=C(CCC(F)(F)F)N[C@H]1CCCCC/C=C\[C@@H]2C[C@@]2(C(=O)NS(=O)(=O)C2CC2)NC(=O)[C@@H]2C[C@@H](NC(=O)c3sc4ccccc4c3Cl)CN2C1=O [Example 50] | < 100
12 | CC(C)(C)OC(=O)N[C@H]1CCCCC/C=C\[C@@H]2C[C@@]2(C(=O)NS(=O)(=O)C2CC2)NC(=O)[C@@H]2C[C@@H](NC(=O)c3ccc4cc[nH]c4c3)CN2C1=O [Example 38] | < 100
13 | CC(C)(C)OC(=O)N[C@H]1CCCCC/C=C\[C@@H]2C[C@@]2(C(=O)O)NC(=O)[C@@H]2C[C@@H](NC(=O)c3sc4cc(F)ccc4c3Cl)CN2C1=O [Example 65] | < 1000
14 | CC(C)(C)OC(=O)N[C@H]1CCCCC/C=C\[C@@H]2C[C@@]2(C(=O)NS(=O)(=O)C2CC2)NC(=O)[C@@H]2C[C@@H](NC(=O)c3cc4ccccc4[nH]3)CN2C1=O [Example 31] | < 100
15 | CC(C)(C)OC(=O)N[C@H]1CCCCC/C=C\[C@@H]2C[C@@]2(C(=O)NS(=O)(=O)C2CC2)NC(=O)[C@@H]2C[C@@H](NC(=O)c3ccc(-n4ccnc4)cc3)CN2C1=O [Example 20] | < 100
16 | CC(C)(C)OC(=O)N[C@H]1CCCCC/C=C\[C@@H]2C[C@@]2(C(=O)NS(=O)(=O)C2CC2)NC(=O)[C@@H]2C[C@@H](NC(=O)c3sc4cc(F)ccc4c3Cl)CN2C1=O [Example 44] | < 100
17 | CC(C)(C)OC(=O)N[C@H]1CCCCC/C=C\[C@@H]2C[C@@]2(C(=O)NS(=O)(=O)C2CC2)NC(=O)[C@@H]2C[C@@H](NC(=O)c3cc4cc(Cl)ccc4[nH]3)CN2C1=O [Example 32] | < 100
18 | CC(C)(C)OC(=O)N[C@H]1CCCCC/C=C\[C@@H]2C[C@@]2(C(=O)NS(=O)(=O)C2CC2)NC(=O)[C@@H]2C[C@@H](NC(=O)c3ccc4ncccc4c3)CN2C1=O [Example 28] | < 100
19 | CN(C)c1ccc(C(=O)N[C@@H]2C[C@H]3C(=O)N[C@]4(C(=O)NS(=O)(=O)C5CC5)C[C@H]4/C=C\CCCCC[C@H](NC(=O)OC(C)(C)C)C(=O)N3C2)cc1 [Example 11] | < 100
20 | CC(C)(C)OC(=O)N[C@H]1CCCCC/C=C\[C@@H]2C[C@@]2(C(=O)NS(=O)(=O)C2CC2)NC(=O)[C@@H]2C[C@@H](NC(=O)c3csc(-c4ccc(Cl)cc4)c3)CN2C1=O [Example 23] | < 100
21 | CC(C)(C)OC(=O)N[C@H]1CCCCC/C=C\[C@@H]2C[C@@]2(C(=O)NS(=O)(=O)C2CC2)NC(=O)[C@@H]2C[C@@H](NC(=O)c3cnn(-c4ccccc4)c3C(F)(F)F)CN2C1=O [Example 21] | < 100
22 | CC(C)(C)OC(=O)N[C@H]1CCCCC/C=C\[C@@H]2C[C@@]2(C(=O)NS(=O)(=O)C2CC2)NC(=O)[C@@H]2C[C@@H](NC(=O)c3ccc(C(N)=O)cc3)CN2C1=O [Example 18] | < 100
23 | CC(C)(C)OC(=O)N[C@H]1CCCCC/C=C\[C@@H]2C[C@@]2(C(=O)NS(=O)(=O)C2CC2)NC(=O)[C@@H]2C[C@@H](NC(=O)c3cnc4ccccc4n3)CN2C1=O [Example 30] | < 100

Each compound was assayed against T2, NS3-NS4A protease (Hepatitis C virus genotype 1a, UniProt P27958) (assay: NS3-NS4A protease assay (NS3 inhibition assay, RETS1 substrate), Section B). Details: read-out: NS3-NS4A IC50.
T2 construct: Recombinant E. coli or Baculovirus full-length NS3 was diluted to 3.33 μM with assay buffer; made in house; host or cells: E. coli or baculovirus (BV) system
T2 sequence (P27958 1027-1657): as above
Type: biochemical
Summary of the method: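 Full-length NS3 (E. coli or baculovirus) precomplexed with excess NS4A-2 peptide, run at 2 nM (E. coli) or 3 nM (BV) NS3; compounds pre-incubated 10 min at room temperature before RETS1 substrate. Fluorescence (ex 335/em 495 nm) read kinetically 30 min; IC50 from four-parameter fit, converted to Ki via Ki=IC50/(1+[S]/Km).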

Row | SMILES | IC50 [nM]
24 | O=C(N[C@H]1CCCCC/C=C\[C@@H]2C[C@@]2(C(=O)NS(=O)(=O)C2CC2)NC(=O)[C@@H]2C[C@@H](OC(=O)N3CCc4ccccc4C3)CN2C1=O)OCC(F)(F)F [AR00320578, (1S,4R,6S,14S,18R)-3,4-Dihydro-1H-isoquinoline-2-carboxylic acid 4-cyclopropanesulfonylaminocarbonyl-2,15-dioxo-14-(2,2,2-trifluoro-ethoxycarbonylamino)-3,16-diaza-tricyclo[14.3.0.0^4,6]nonadec-7-en-18-yl ester] | < 100
25 | CC(C)(C)OC(=O)N[C@H]1CCCCC/C=C\[C@@H]2C[C@@]2(C(=O)NS(=O)(=O)C2CC2)NC(=O)[C@@H]2C[C@@H](OC(=O)N3Cc4ccc(OCCn5ccnc5)cc4C3)CN2C1=O [AR00345096, (1S,4R,6S,14S,18R)-5-(2-Imidazol-1-yl-ethoxy)-1,3-dihydro-isoindole-2-carboxylic acid 14-tert-butoxycarbonylamino-4-cyclopropanesulfonylaminocarbonyl-2,15-dioxo-3,16-diaza-tricyclo[14.3.0.0^4,6]nonadec-7-en-18-yl ester] | < 100
26 | O=C(N[C@H]1CCCCC/C=C\[C@@H]2C[C@@]2(C(=O)NS(=O)(=O)C2CC2)NC(=O)[C@@H]2C[C@@H](OC(=O)N3Cc4ccc(Cl)cc4C3)CN2C1=O)OCCF [AR00334222, (1S,4R,6S,14S,18R)-5-Chloro-1,3-dihydro-isoindole-2-carboxylic acid 4-cyclopropanesulfonylaminocarbonyl-14-(2-fluoro-ethoxycarbonylamino)-2,15-dioxo-3,16-diaza-tricyclo[14.3.0.0^4,6]nonadec-7-en-18-yl ester] | < 100
27 | CC(C)(C)OC(=O)N[C@H]1CCCCC/C=C\[C@@H]2C[C@@]2(C(=O)O)NC(=O)[C@@H]2C[C@@H](OC(=O)N3CCc4ccccc4C3)CN2C1=O [AR00220042, (1S,4R,6S,14S,18R)-14-tert-Butoxycarbonylamino-18-(3,4-dihydro-1H-isoquinoline-2-carbonyloxy)-2,15-dioxo-3,16-diaza-tricyclo[14.3.0.0^4,6]nonadec-7-ene-4-carboxylic acid] | < 1000
